In patent US10584283B2, “Preservative for technical products” (Schülke & Mayr GmbH, priority 2015, dated 2020):

Assay: Storage stability in polyethylene bottles, Experiment 6 (other alkalizing agents)
Assay type: physicochemical
Method: It was also investigated whether the stabilization achieved according to the invention with the particularly preferred agent MIPA is also achieved with other alkalizing agents.
Samples of the solutions were stored in bottles made of polyethylene at −5° C., 25° C. and 40° C. in order to investigate the stability.

CCCCCCCCCCCCN(CCCN)CCCN [N,N-bis(3-aminopropyl)-dodecylamine]
Storage stability / compatibility (conclusion in words): incompatible with TTT
